Measured values taken from ChEMBL document CHEMBL3272338, “Bis-basic-substituted polycyclic aromatic compounds. A new class of antiviral agents. 8. Bis-basic derivatives of carbazole, dibenzofuran, and dibenzothiophene” (1977).
The source made the active and inactive calls. The calls are words filed in the database; no cut-off is given here.

Experiments:
[1] = system: Encephalomyocarditis virus; assay: Antiviral activity against Encephalomyocarditis virus infected in CF-1 mouse assessed as host survival time ratio at 250 mg/kg, po administered via gavage as single dose at 22 to 28 hrs before virus inoculation; type: functional
[2] = system: Encephalomyocarditis virus; assay: Antiviral activity against Encephalomyocarditis virus infected in CF-1 mouse assessed as host survival time ratio at 250 mg/kg, sc administered as single dose at 22 hrs before virus inoculation; type: functional; conditions: route subcutaneous
[3] = system: Encephalomyocarditis virus; assay: Antiviral activity against Encephalomyocarditis virus infected in CF-1 mouse assessed as host survival time ratio at 50 mg/kg, sc administered 28, 22, 2 hrs before and 2 hrs after virus inoculation; type: functional; conditions: route subcutaneous
[4] = system: Encephalomyocarditis virus; assay: Antiviral activity against Encephalomyocarditis virus infected in CF-1 mouse assessed as host survival time ratio at 50 mg/kg, po administered via gavage at 28, 22, 2 hrs before and 2 hrs after virus inoculation; type: functional
[5] = system: Encephalomyocarditis virus; assay: Antiviral activity against Encephalomyocarditis virus infected in CF-1 mouse assessed as host survival time ratio at 10 mg/kg, sc administered 28, 22, 2 hrs before and 2 hrs after virus inoculation; type: functional; conditions: route subcutaneous
[6] = system: Human alphaherpesvirus 1; assay: In vivo antiviral activity against Herpesvirus hominis type 1 infected in po dosed white mouse assessed as suppression of raised, blister-like lesions; type: functional, organism-based
[7] = system: Human alphaherpesvirus 1; assay: (§1) In vivo antiviral activity against Herpesvirus hominis type 1 infected in hairless mouse assessed as suppression of ulcerated zoster-like lesions development administered topically at 2, 4 and 6 hrs after virus inoculation followed by continuous treatment daily for 4 days four times a day at 2 hrs interval measured on 8th day post-infection; type: functional, organism-based
[8] = system: Human alphaherpesvirus 1; assay: In vitro antiviral activity against Herpesvirus hominis type 1 infected in African green monkey Vero cells assessed as log reduction of virus titer by cytopathologic assay (reference value: 5); type: functional
[9] = system: Influenza A virus; assay: Antiviral activity against Influenza A virus A2 Jap/305 infected in mouse; type: functional, organism-based
[10] = system: Human alphaherpesvirus 1; assay: as §1, with “decrease in lesion score” for “suppression of ulcerated zoster-like lesions development”; type: functional, organism-based
[11] = system: Vaccinia virus; assay: Antiviral activity against Vaccinia virus infected in mouse; type: functional, organism-based; conditions: Orthopoxvirus vaccinia
[12] = system: Semliki Forest virus; assay: Antiviral activity against Semliki forest virus infected in mouse; type: functional, organism-based
[13] = system: Mus musculus; assay: Induction of interferon induction in sc dosed mouse serum; type: functional, organism-based
[14] = system: Influenza A virus; assay: Antiviral activity against Influenza A virus A0 (Pr8) infected in mouse; type: functional, organism-based
[15] = system: Mus musculus; assay: Induction of interferon induction in po dosed mouse serum; type: functional, organism-based
[16] = system: Venezuelan equine encephalitis virus; assay: Antiviral activity against Venezuelan equine encephalitis virus infected in po dosed monkey assessed as reduction in viremia; type: functional, organism-based
[17] = system: Encephalomyocarditis virus; assay: Antiviral activity against Encephalomyocarditis virus infected in CF-1 mouse assessed as host survival time ratio at 250 mg/kg, sc administered 28, 22, 2 hrs before and 2 hrs after virus inoculation; type: functional; conditions: route subcutaneous

Cl.O=C(CCCN1CCC(Cc2ccccc2)CC1)c1ccc2oc3ccc(C(=O)CCCN4CCC(Cc5ccccc5)CC4)cc3c2c1
Ratio [1]: 0.98 | Ratio [2]: 1.82 | Ratio [3]: 1.7 | Ratio [4]: 1.07 | Ratio [5]: 1.27

CN(C)CC(=O)c1ccc2sc3ccc(C(=O)CN(C)C)cc3c2c1.Cl
inhibition [6]: inactive | inhibition [7]: inactive | Ratio [1]: 2.29 | log(activity) [8]: 2.5 | Activity [9]: Active | inhibition [10]: Active | Ratio [3]: 2.29 | Activity [11]: Active | Ratio [4]: 1.75 | Activity [12]: Active | Ratio [5]: 1.1 | Activity [13]: Active | Activity [14]: Active | Activity [15]: Active | inhibition [16]: Active | Ratio [17]: 2.29

CCN(CC)CCOC(=O)c1ccc2oc3ccc(C(=O)OCCN(CC)CC)cc3c2c1.Cl
Ratio [1]: 0.98 | Ratio [3]: 1.02 | Ratio [4]: 1.02 | Ratio [5]: 1 | Ratio [17]: 1.09

CCN(CC)CC(=O)c1ccc2oc3ccc(C(=O)CN(CC)CC)cc3c2c1.Cl
Ratio [1]: 1.65 | Ratio [3]: 1.35 | Ratio [4]: 0.96 | Ratio [5]: 0.96 | Ratio [17]: 2.17

CCN(CC)CCCOc1ccc2oc3ccc(OCCCN(CC)CC)cc3c2c1
Ratio [1]: 0.92 | Ratio [2]: 1.47 | Ratio [3]: 0.88 | Ratio [4]: 0.98 | Ratio [5]: 0.98

CN(C)CC(=O)c1ccc2oc3ccc(C(=O)CN(C)C)cc3c2c1.Cl
inhibition [6]: inactive | inhibition [7]: inactive | Ratio [1]: 2.2 | log(activity) [8]: 2.5 | inhibition [10]: Active | Ratio [3]: 1.64 | Activity [11]: Active | Ratio [4]: 1.8 | Activity [12]: Active | Ratio [5]: 1.13 | Activity [13]: Active | Activity [15]: Active | inhibition [16]: Active | Ratio [17]: 2

Cl.O=C(OCCCN1CCCCC1)c1ccc2oc3ccc(C(=O)OCCCN4CCCCC4)cc3c2c1
Ratio [1]: 1.02 | Ratio [3]: 1.22 | Ratio [4]: 0.96 | Ratio [5]: 1.11 | Ratio [17]: 0.91

CN(C)CCCOc1ccc2oc3ccc(OCCCN(C)C)cc3c2c1.Cl
Ratio [1]: 0.88 | Ratio [3]: 1.24 | Ratio [4]: 0.92 | Ratio [5]: 0.92 | Ratio [17]: 0.66

CC(C)N(CCOc1ccc2sc3ccc(OCCN(C(C)C)C(C)C)cc3c2c1)C(C)C.Cl
Ratio [1]: 1 | Ratio [3]: 1.3 | Ratio [4]: 1.18 | Ratio [5]: 1.24 | Ratio [17]: 1.2

CCn1c2ccc(C(=O)CCCN3CCCCC3)cc2c2cc(C(=O)CCCN3CCCCC3)ccc21.Cl
Ratio [1]: 1.2 | Ratio [3]: 1.58 | Ratio [4]: 1.09 | Ratio [5]: 1.68 | Ratio [17]: 0.56
